Laboratory results as given in article PMC8000185 (International Journal of Molecular Sciences, 2021).

Columns and labels:
[1] = target: T1, NHE1 (Homo sapiens, UniProt P19634); assay: Plate-based NHE1 inhibition assay (BCECF pHi recovery, 96-well plate reader); format: cell-based; conditions: MDA-MB-231 cells, plate reader
T1 construct: endogenous in cells; host or cells: MDA-MB-231
Method: To perform NHE1 screening with increased throughput, we adapted the conventional cuvette-based NHE1 activity assay to a simple new 96-well plate format using MDA-MB-231 cells that were compatible with common laboratory fluorescence plate readers (see Section 4 for details).
Culture media were removed and replaced with 200 µL 0.2% FBS-containing media with incubation for 3–4 h to stimulate NHE1 activity, followed by incubation for 30 min in the presence of 5 µM 2′,7′-bis(carboxyethyl)-5(6)-carboxyfluorescein-acetoxymethyl ester (BCECF-AM, cat #ab143463, Abcam, Cambridge, United Kingdom). Cells were then washed with 100 µL/well Na^+-free acid-load buffer: 10 mM NH4Cl, 1.8 mM CaCl2, 90 mM N-methyl-D-glucamine (from 1 M stock titrated to pH 7.4 with HCl), 5 mM glucose, 15 mM HEPES, 5 mM KCl, 1 mM MgCl2 (pH 7.5, adjusted with KOH), and incubated at 37 °C for a further 30 min. Acid-load buffer was removed and replaced with Na^+-containing assay buffer: 100 mM NaCl, 1.8 mM CaCl2, 5 mM glucose, 15 mM HEPES, 5 mM KCl, 1 mM MgCl2 containing serial dilution of each compound or DMSO vehicle, and changes in fluorescence were read immediately using a BMG Labtech POLARstar OMEGA (BMG Labtech GmbH, Offenburg, Germany) plate reader according to the parameters in Table S1. Compounds were tested at n = 3 technical replicates per concentration per plate. BCECF-AM-free cells were treated with matched concentrations of each compound to correct for intrinsic fluorescence. DMSO was present in all wells at a final concentration of 1% v/v. Inhibition of NHE1-mediated pHi recovery was determined by ratiometric calculation of the change in blank-corrected pH-sensitive fluorescence divided by the isobestic fluorescence for each well over time. […] (0% activity) controls present on each plate. IC50 values were determined through fitting of Log-10 transformed data using the “log(inhibitor) versus normalised response–variable slope” non-linear function in GraphPad PRISM v8.0 software package (GraphPad Software, San Diego, CA, USA).

[2] = Cell viability (cytotoxicity) assay; format: cell-based; conditions: human, MDA-MB-231 cells, 48 h treatment
Method: On the day of treatment, respective compounds were serially diluted using a semi-logarithmic dilution series from 20 mM stocks in neat DMSO into DMEM-high glucose media (10% v/v FBS) in a separate 96-well plate and under sterile conditions. Thereafter, 10 μL of the diluted compounds at their respective concentrations (n = 4) were added to the cells. […] Vehicle media blanks or drug blanks were also included to correct for inherent colour of the compounds and phenol red-containing media. Following 48 h treatment, 20 μL CellTitre 96® Aqueous One Solution Cell Proliferation Assay (Promega, Madison, USA) was added to each well, plates were incubated for 2 h, and absorbance was measured at 490 nm using a SpectraMax Plus 384-well plate reader (Molecular Devices LLC, San Jose, USA) and Softmax PRO v7.0 software. Blank-corrected data were analysed and graphed using GraphPad PRISM v8.0 software (GraphPad Software, San Diego, CA USA).

[3] = target: T2, urokinase from human kidney cells (human uPA) (Homo sapiens, UniProt P00749); assay: uPA inhibition assay (fluorescence-based, purified enzyme); format: biochemical; conditions: for IC50: purified enzyme, Z-Gly-Gly-Arg-AMC substrate, number in parentheses after value, read-out: uPA IC50
T2 construct: low molecular weight active human uPA; purchased Sigma-Aldrich U4010; host or cells: human kidney cells

T1 sequence (P19634 whole entry): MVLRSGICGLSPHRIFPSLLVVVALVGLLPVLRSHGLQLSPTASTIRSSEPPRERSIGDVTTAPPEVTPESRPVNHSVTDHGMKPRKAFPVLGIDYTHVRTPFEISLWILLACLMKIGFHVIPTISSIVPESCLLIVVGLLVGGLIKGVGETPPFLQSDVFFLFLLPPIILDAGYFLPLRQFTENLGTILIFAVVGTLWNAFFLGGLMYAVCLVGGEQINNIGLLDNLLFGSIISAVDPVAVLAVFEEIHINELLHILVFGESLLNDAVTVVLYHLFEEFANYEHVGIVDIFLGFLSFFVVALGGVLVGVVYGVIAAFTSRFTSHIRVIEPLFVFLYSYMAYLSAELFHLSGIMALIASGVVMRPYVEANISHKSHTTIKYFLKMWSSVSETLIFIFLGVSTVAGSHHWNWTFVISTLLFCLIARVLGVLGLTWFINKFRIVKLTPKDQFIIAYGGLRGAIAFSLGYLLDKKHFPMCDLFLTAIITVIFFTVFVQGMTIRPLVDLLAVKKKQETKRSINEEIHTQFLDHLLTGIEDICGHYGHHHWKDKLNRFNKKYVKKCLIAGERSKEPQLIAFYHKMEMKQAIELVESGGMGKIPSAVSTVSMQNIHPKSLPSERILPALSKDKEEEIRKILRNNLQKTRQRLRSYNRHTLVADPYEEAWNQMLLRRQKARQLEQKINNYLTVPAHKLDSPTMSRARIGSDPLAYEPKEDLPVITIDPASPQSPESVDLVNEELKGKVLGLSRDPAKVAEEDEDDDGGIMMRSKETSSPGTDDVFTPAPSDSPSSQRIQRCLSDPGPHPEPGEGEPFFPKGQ

N=C(N)NC(=O)c1nc(Cl)c(N2CCCCCC2)nc1N [HMA, 5-(N,N-hexamethylene)amiloride, reference compound]
inhibition at 1 µM [1]: 66%
NHE1 Inhibition (%) 10 μM ([1]; 10 μM): completely blocking activity
inhibition at 10 µM ([1]; 10 μM): 100%
IC50 at 48 h [2]: 32.1 µM
IC50 [3]: 2.21 µM

N=C(N)NC(=O)c1nc(I)c(N)nc1N [compound 3]
inhibition at 1 µM [1]: 36%
inhibition at 10 µM ([1]; 10 μM): 86%
IC50 at 48 h [2]: > 100 µM
IC50 [3]: 1.58 µM

N=C(N)NC(=O)c1nc(-c2cc3ccccc3o2)c(N2CCCCCC2)nc1N [compound 5]
inhibition at 1 µM [1]: 39%
inhibition at 10 µM ([1]; 10 μM): 72%
IC50 at 48 h [2]: 19.1 µM
IC50 [3]: 0.297 ± 0.016 µM

Cc1ccc2oc(-c3nc(C(=O)NC(=N)N)c(N)nc3N)cc2c1 [compound 6]
inhibition at 1 µM [1]: 0%
inhibition at 10 µM ([1]; 10 μM): 71%
IC50 at 48 h [2]: 11.7 µM
IC50 [3]: 1.05 µM

Cc1ccc2oc(-c3nc(C(=O)NC(=N)N)c(N)nc3N3CCCCCC3)cc2c1 [compound 7]
inhibition at 1 µM [1]: 5%
inhibition at 10 µM ([1]; 10 μM): 100%
IC50 at 48 h [2]: 8.8 µM
IC50 [3]: 1.18 µM

N=C(N)NC(=O)c1nc(-c2cc3cc(F)ccc3o2)c(N)nc1N [compound 8]
inhibition at 1 µM [1]: 0%
inhibition at 10 µM ([1]; 10 μM): 75%
IC50 at 48 h [2]: 10.6 µM
IC50 [3]: 0.954 ± 0.072 µM

N=C(N)NC(=O)c1nc(-c2cc3cc(F)ccc3o2)c(N2CCCCCC2)nc1N [compound 9]
inhibition at 1 µM [1]: 22%
inhibition at 10 µM ([1]; 10 μM): 100%
IC50 at 48 h [2]: 9.6 µM
IC50 [3]: 0.187 ± 0.017 µM

N=C(N)NC(=O)c1nc(-c2cc3cc(Cl)ccc3o2)c(N)nc1N [compound 10]
inhibition at 1 µM [1]: 0%
inhibition at 10 µM ([1]; 10 μM): 62%
IC50 at 48 h [2]: 4.4 µM
IC50 [3]: 0.94 ± 0.059 µM

N=C(N)NC(=O)c1nc(-c2cc3cc(Cl)ccc3o2)c(N2CCCCCC2)nc1N [compound 11]
inhibition at 1 µM [1]: 0%
inhibition at 10 µM ([1]; 10 μM): 0%
IC50 at 48 h [2]: 26.4 µM
inhibition at 2.5 µM ([3]; @ 2,500 nM, read-out: uPA inhibition at single concentration (printed in uPA IC50 column)): 49%

N=C(N)NC(=O)c1nc(-c2cc3cc(Br)ccc3o2)c(N)nc1N [compound 12]
inhibition at 1 µM [1]: 0%
inhibition at 10 µM ([1]; 10 μM): 97%
IC50 at 48 h [2]: 32.1 µM
IC50 [3]: 5.93 µM

N=C(N)NC(=O)c1nc(-c2cc3cc(Br)ccc3o2)c(N2CCCCCC2)nc1N [compound 13]
inhibition at 1 µM [1]: 0%
inhibition at 10 µM ([1]; 10 μM): 0%
IC50 at 48 h [2]: 6.2 µM
IC50 [3]: 2.56 µM

COc1ccc2oc(-c3nc(C(=O)NC(=N)N)c(N)nc3N)cc2c1 [compound 14]
inhibition at 1 µM [1]: 4%
inhibition at 10 µM ([1]; 10 μM): 36%
IC50 at 48 h [2]: > 100 µM
higher uPA activity than its HMA congener 15 [3]: > 3 fold
IC50 [3]: 0.467 ± 0.022 µM

COc1ccc2oc(-c3nc(C(=O)NC(=N)N)c(N)nc3N3CCCCCC3)cc2c1 [compound 15]
inhibition at 1 µM [1]: 34%
inhibition at 10 µM ([1]; 10 μM): 91%
IC50 at 48 h [2]: 25.1 µM
IC50 [3]: 1.69 µM

N=C(N)NC(=O)c1nc(-c2cc3cc(F)cc(F)c3o2)c(N)nc1N [compound 16]
inhibition at 1 µM [1]: 7%
inhibition at 10 µM ([1]; 10 μM): 52%
IC50 at 48 h [2]: 4.7 µM
IC50 [3]: 0.609 ± 0.026 µM

N=C(N)NC(=O)c1nc(-c2cc3cc(F)cc(F)c3o2)c(N2CCCCCC2)nc1N [compound 17]
inhibition at 1 µM [1]: 0%
inhibition at 10 µM ([1]; 10 μM): 90%
IC50 at 48 h [2]: 8.8 µM
IC50 [3]: 0.38 ± 0.01 µM

N=C(N)NC(=O)c1nc(-c2cc3cnccc3o2)c(N)nc1N [compound 18]
IC50 at 48 h [2]: 26.4 µM
IC50 [3]: 1.01 µM

N=C(N)NC(=O)c1nc(-c2cc3cnccc3o2)c(N2CCCCCC2)nc1N [compound 19]
inhibition at 1 µM [1]: 23%
inhibition at 10 µM ([1]; 10 μM): 100%
IC50 at 48 h [2]: 69.4 µM
IC50 [3]: 0.164 µM

N=C(N)NC(=O)c1nc(-c2cc3ncccc3o2)c(N)nc1N [compound 20]
inhibition at 1 µM [1]: 0%
inhibition at 10 µM ([1]; 10 μM): 31%
IC50 at 48 h [2]: > 100 µM
IC50 [3]: 0.453 µM

N=C(N)NC(=O)c1nc(-c2cc3ncccc3o2)c(N2CCCCCC2)nc1N [compound 21]
inhibition at 1 µM [1]: 2%
inhibition at 10 µM ([1]; 10 μM): 100%
IC50 at 48 h [2]: 43.1 µM
IC50 [3]: 0.038 µM

N=C(N)NC(=O)c1nc(-c2ccc(C(F)(F)F)cc2)c(N)nc1N [compound 22]
IC50 at 48 h [2]: 82.4 µM
IC50 [3]: 5.1 µM

N=C(N)NC(=O)c1nc(-c2ccc(C(F)(F)F)cc2)c(N2CCCCCC2)nc1N [compound 23]
inhibition at 1 µM [1]: 77%
inhibition at 10 µM ([1]; 10 μM): 100%
IC50 at 48 h [2]: 14.7 µM
IC50 [3]: 6.91 µM

COc1ncc(-c2nc(C(=O)NC(=N)N)c(N)nc2N)cn1 [compound 25]
inhibition at 1 µM [1]: 0%
inhibition at 10 µM ([1]; 10 μM): 18%
IC50 at 48 h [2]: > 100 µM
IC50 [3]: 0.333 ± 0.022 µM

N=C(N)NC(=O)c1nc(-c2cnc(N)nc2)c(N2CCCCCC2)nc1N [compound 27]
inhibition at 1 µM [1]: 0%
inhibition at 10 µM ([1]; 10 μM): 11%
IC50 at 48 h [2]: > 100 µM
IC50 [3]: 0.034 ± 0.005 µM

N=C(N)NC(=O)c1nc(-c2cnc(NCCO)nc2)c(N2CCCCCC2)nc1N [compound 28]
inhibition at 1 µM [1]: 0%
inhibition at 10 µM ([1]; 10 μM): 15%
IC50 at 48 h [2]: > 100 µM
IC50 [3]: 0.067 ± 0.003 µM

N=C(N)NC(=O)c1nc(-c2cc3ccccc3o2)c(N2CCCC2)nc1N [compound 31]
inhibition at 1 µM [1]: 18%
inhibition at 10 µM ([1]; 10 μM): 85%
IC50 at 48 h [2]: 22.7 µM
IC50 [3]: 0.546 ± 0.024 µM

N=C(N)NC(=O)c1nc(-c2cc3ccccc3o2)c(N2CCCCC2)nc1N [compound 32]
inhibition at 1 µM [1]: 69%
inhibition at 10 µM ([1]; 10 μM): 100%
IC50 at 48 h [2]: 16.2 µM
IC50 [3]: 1.88 µM

CCN(c1nc(N)c(C(=O)NC(=N)N)nc1-c1cc2ccccc2o1)C(C)C [compound 33]
inhibition at 1 µM [1]: 8%
inhibition at 10 µM ([1]; 10 μM): 41%
IC50 at 48 h [2]: 17.2 µM
IC50 [3]: 1.6 µM
decrease in uPA activity on opening the 5-alkylamino ring ([3]; within the 6-(2-benzofuranyl) series): > 5 fold

N=C(N)NC(=O)c1nc(-c2cc3ccccc3o2)c(NC2CCCC2)nc1N [compound 34]
inhibition at 1 µM [1]: 0%
inhibition at 10 µM ([1]; 10 μM): 0%
IC50 at 48 h [2]: 6.2 µM
IC50 [3]: 5.87 µM

N=C(N)NC(=O)c1nc(-c2cc3ccccc3o2)c(NC2CCCCCC2)nc1N [compound 35]
inhibition at 1 µM [1]: 0%
inhibition at 10 µM ([1]; 10 μM): 0%
IC50 at 48 h [2]: 26.2 µM
IC50 [3]: 30.2 µM

N=C(N)NC(=O)c1nc(-c2cc3ccccc3o2)c(N2CCOCC2)nc1N [compound 36]
inhibition at 1 µM [1]: 29%
inhibition at 10 µM ([1]; 10 μM): 81%
IC50 at 48 h [2]: 36.7 µM
IC50 [3]: 0.797 ± 0.015 µM

N=C(N)NC(=O)c1nc(-c2cc3ccccc3o2)c(N2CCCOCC2)nc1N [compound 37]
inhibition at 1 µM [1]: 55%
inhibition at 10 µM ([1]; 10 μM): 96%
IC50 at 48 h [2]: 54 µM
IC50 [3]: 0.149 ± 0.017 µM

N=C(N)NC(=O)c1nc(-c2cc3ncccc3o2)c(N2CCCC2)nc1N [compound 38]
inhibition at 1 µM [1]: 0%
inhibition at 10 µM ([1]; 10 μM): 81%
IC50 at 48 h [2]: > 100 µM
IC50 [3]: 0.113 ± 0.004 µM

N=C(N)NC(=O)c1nc(-c2ccc(C(F)(F)F)cc2)c(C2CC2)nc1N [compound 40]
inhibition at 1 µM [1]: 28%
inhibition at 10 µM ([1]; 10 μM): 80%
IC50 at 48 h [2]: 26.6 µM
IC50 [3]: 16.2 µM

N=C(N)NC(=O)c1nc(-c2cncnc2)c(N2CCOCC2)nc1N [compound 41]
inhibition at 1 µM [1]: 77%
inhibition at 10 µM ([1]; 10 μM): 87%
IC50 at 48 h [2]: > 100 µM
IC50 [3]: 0.563 ± 0.029 µM

N=C(N)NC(=O)c1nc(-c2cncnc2)c(N2CCCOCC2)nc1N [compound 42]
inhibition at 1 µM [1]: 39%
inhibition at 10 µM ([1]; 10 μM): 96%
IC50 at 48 h [2]: > 100 µM
IC50 [3]: 0.78 ± 0.033 µM

COc1ncc(-c2nc(C(=O)NC(=N)N)c(N)nc2N2CCCOCC2)cn1 [compound 43]
inhibition at 1 µM [1]: 0%
inhibition at 10 µM ([1]; 10 μM): 16%
IC50 at 48 h [2]: > 100 µM
IC50 [3]: 0.267 ± 0.014 µM
